Experiments:
CYP3A4 = assay: in vitro; conditions: for IC50: Sprague-Dawley, rat, microsomes, pH 7.4, IC50 CYP3A4, single components, RLM 0.2 mg/mL, 15 min, triplicate, mean ± SD; for Response (% control) CYP3A4: at the Cmax level in rat plasma, calculated from the dose–response curve
Procedure: (§1) (OHBUP-[D6]) and 5 nM 4′-hydroxydiclofenac-[^13C6] (OHDIC-[^13C6]) as internal standards (ISs). […]
(§2) standard addition experiments. Each group included four concentration levels. For the PK […]
(§3) The probe compounds, viz. […]
(§4) chosen after incubating all the recruited substrates. In order to assure the linear relationship […]
(§5) The incubation system was also optimized in terms of substrate concentrations. The substrates concentrations of […]

CYP2B6 = assay: In vitro cocktail CYP450 activity assay in rat liver microsomes, CYP2B6 (bupropion probe); conditions: for IC50 at 15 min: Sprague-Dawley, rat, pooled rat liver microsomes, pH 7.4, probe bupropion (90 µM, in seven-probe cocktail), IC50 CYP2B6, single components, RLM 0.2 mg/mL, triplicate, mean ± SD; for Response (% control) CYP2B6: at the Cmax level in rat plasma, calculated from the dose–response curve
Procedure: as §1, §2, §3, §4, §5

CYP2C9 = assay: In vitro cocktail CYP450 activity assay in rat liver microsomes, CYP2C9 (tolbutamide probe); conditions: for IC50 at 15 min: Sprague-Dawley, rat, pooled rat liver microsomes, pH 7.4, probe tolbutamide (18 µM, in seven-probe cocktail), IC50 CYP2C9, single components, RLM 0.2 mg/mL, triplicate, mean ± SD
Procedure: as §1, §2, §3, §4, §5

CYP2D6 = assay: in vitro; conditions: Sprague-Dawley, rat; for IC50 at 15 min: microsomes, pH 7.4, IC50 CYP2D6
Procedure: as §1, §2, §3, §4, §5

CYP1A2 = target: T1, CYP1A2 (Rattus norvegicus, UniProt P04799); assay: In vitro cocktail CYP450 activity assay in rat liver microsomes, CYP1A2 (phenacetin probe); conditions: for IC50: IC50 CYP1A2, single components, RLM 0.2 mg/mL, 15 min, triplicate, mean ± SD; for Response (% control) CYP1A2: at the Cmax level in rat plasma, calculated from the dose–response curve
T1 sequence (P04799 1-513): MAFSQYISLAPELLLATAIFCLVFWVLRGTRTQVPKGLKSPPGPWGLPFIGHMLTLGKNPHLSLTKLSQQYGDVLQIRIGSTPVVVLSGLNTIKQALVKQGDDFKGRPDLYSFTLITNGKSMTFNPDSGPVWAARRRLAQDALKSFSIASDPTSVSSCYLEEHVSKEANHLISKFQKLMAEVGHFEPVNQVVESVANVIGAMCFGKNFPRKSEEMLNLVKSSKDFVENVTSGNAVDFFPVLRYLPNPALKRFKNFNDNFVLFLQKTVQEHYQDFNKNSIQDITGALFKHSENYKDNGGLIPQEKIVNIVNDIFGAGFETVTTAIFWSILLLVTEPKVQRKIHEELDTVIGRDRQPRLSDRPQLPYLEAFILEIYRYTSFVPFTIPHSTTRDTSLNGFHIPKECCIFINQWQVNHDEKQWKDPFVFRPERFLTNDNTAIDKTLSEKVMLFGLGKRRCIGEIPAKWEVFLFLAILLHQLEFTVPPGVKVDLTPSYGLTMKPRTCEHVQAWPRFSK
Procedure: as §1, §2, §3, §4, §5

CYP2E1 [1] = target: T2, CYP2E1 (Rattus norvegicus, UniProt P05182); conditions: IC50 CYP2E1, single components; RLM 0.2 mg/mL, 15 min, triplicate, mean ± SD
Procedure: (§6) For the cocktail assay, the activity is expressed as the percentage of activity remaining comparing with that of a control sample containing no inhibitor. […] All the data were described as mean ± standard deviation (SD). Normality assumptions were tested by the Kolmogorov–Smirnov statistic setting p = 0.10 as the limit for rejection of the null hypothesis of normality. If the distribution of the data was normal with equal variances, a two-sided test was performed at the 5% level of significance. The Welch’s correction was then applied when the underlying variances were not equal. When the assumption of normality must be rejected, the Mann-Whitney test, a non-parametric equivalent of the independent-measures t-test, was used.

CYP2C19 = assay: In vitro cocktail CYP450 activity assay in rat liver microsomes, CYP2C19 (omeprazole probe); conditions: for IC50 at 15 min: Sprague-Dawley, rat, pooled rat liver microsomes, pH 7.4, probe omeprazole (1.07 µM, in seven-probe cocktail), IC50 CYP2C19, single components, RLM 0.2 mg/mL, triplicate, mean ± SD; for Response (% control) CYP2C19: at the Cmax level in rat plasma, calculated from the dose–response curve
Procedure: as §1, §2, §3, §4, §5

in vivo = assay: in vivo; parameters: species or system Sprague-Dawley (SD) rats; conditions: Sprague-Dawley, plasma, rat; for concentration at […]: 0.083 h after oral CNP
Procedure: At each time, 0.5 mL of blood was collected in the heparin sodium tubes. Plasma was separated by centrifugation at 4000 rpm for 10 min and stored below −80 °C until bioanalysis. Oasis PRiME HLB SPE cartridges (1 cc/30 mg, Waters, Milford, MA, USA) were used to process the plasma samples (Supplementary Materials).
The generic layout of instrumentation setup of the LVDI-UHPLC-MS/MS was conducted on a Shimadzu UHPLC system consisting of two LC-20ADXR pumps, a DGU-20A3R degasser, and a CBM-20A controller (Kyoto, Japan) with a SCIEX 4500 QTRAP mass spectrometer mounted with an electron spray ionization (ESI) interface as well as an electronic 6-port/2-channel valve (Foster City, CA, USA). Analyst software package (version 1.6.2, SCIEX) was implemented to control and synchronize the entire system, and also for data acquisition and processing. A single analytical run was fragmented into two phases, namely, loading and elution phases, by switching the electronic valve (Figure 2). At the loading phase, the valve was maintained at A-channel. The specimen aliquot of large volume delivered from the auto-sampler was captured onto a guard column. Meanwhile, the pumps were responsible for delivering the mobile phase at a high flow rate, aiming to dilute the sample solvent, thus facilitating the candidate constituents to concentrate on the pre-guard column. Then, the valve was automatically switched to the B-channel to trigger the elution phase. The trapped components were flushed from the pre-guard column into an analytical column, and underwent multiple reaction monitoring (MRM) analysis on the optimized LC gradients. The detailed information of LVDI-UHPLC-MS/MS analysis for pharmacokinetic and cocktail studies is shown in the Supplementary Materials section.

CYP2E1 [2] = target: T2, CYP2E1; conditions: Sprague-Dawley, rat, 15 min, pH 7.4
Procedure: as §6

T2 sequence (P05182 whole entry): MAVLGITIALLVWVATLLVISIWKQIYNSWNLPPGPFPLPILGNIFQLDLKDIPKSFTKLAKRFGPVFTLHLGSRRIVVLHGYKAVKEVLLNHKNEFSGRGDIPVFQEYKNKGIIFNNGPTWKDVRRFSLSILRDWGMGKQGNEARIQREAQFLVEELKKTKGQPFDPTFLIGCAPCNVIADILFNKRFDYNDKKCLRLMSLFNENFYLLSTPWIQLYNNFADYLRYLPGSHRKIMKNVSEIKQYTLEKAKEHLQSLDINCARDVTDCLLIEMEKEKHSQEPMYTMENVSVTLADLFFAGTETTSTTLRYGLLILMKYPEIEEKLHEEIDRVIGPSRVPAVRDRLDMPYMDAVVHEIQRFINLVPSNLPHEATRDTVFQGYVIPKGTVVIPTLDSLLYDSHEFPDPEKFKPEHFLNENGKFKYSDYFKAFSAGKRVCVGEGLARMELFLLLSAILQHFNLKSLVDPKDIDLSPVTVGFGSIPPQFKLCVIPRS

## CC(C)=CCC[C@](C)(O[C@@H]1O[C@H](CO)[C@@H](O)[C@H](O)[C@H]1O)[C@H]1CC[C@]2(C)[C@@H]1[C@H](O)C[C@@H]1[C@@]3(C)CC[C@H](O)C(C)(C)[C@@H]3[C@@H](O[C@@H]3O[C@H](CO)[C@@H](O)[C@H](O)[C@H]3O[C@@H]3O[C@@H](C)[C@H](O)[C@@H](O)[C@H]3O)C[C@]12C [GRe, ginsenoside Re]
CYP3A4
  IC50: 75.1 ± 7.24 µM
  Response (% control) CYP3A4: 99.99 % control
CYP2B6
  IC50 at 15 min: 39.4 ± 4.81 µM
  Response (% control) CYP2B6: 99.64 % control
CYP2C9
  IC50 at 15 min: > 200 µM
CYP2D6
  IC50 at 15 min: > 200 µM
CYP1A2
  IC50: 94.4 ± 4.52 µM
  Response (% control) CYP1A2: 99.99 % control
CYP2E1 [1]
  IC50: 25.6 ± 9.03 µM
CYP2C19
  IC50 at 15 min: 50.5 ± 15.4 µM
  Response (% control) CYP2C19: 98.36 % control
In vivo
  concentration at […]: 0.24 ± 0.02 ng/mL
In vivo; 0.25 h after oral CNP
  concentration at 0.25 h: 0.25 ± 0.01 ng/mL
In vivo; 0.5 h after oral CNP
  concentration at 0.5 h: 0.33 ± 0.11 ng/mL
In vivo; 1 h after oral CNP
  concentration at 1 h: 0.24 ± 0.04 ng/mL
In vivo; 1.5 h after oral CNP
  concentration at 1.5 h: 0.24 ± 0.03 ng/mL
In vivo; 2 h after oral CNP
  concentration at 2 h: 0.23 ± 0.02 ng/mL
In vivo; 3 h after oral CNP
  concentration at 3 h: 0.28 ± 0.1 ng/mL
In vivo; 4 h after oral CNP
  concentration at 4 h: 0.28 ± 0.07 ng/mL
In vivo; 6 h after oral CNP
  concentration at 6 h: 0.23 ± 0.03 ng/mL
In vivo; 8 h after oral CNP
  concentration at 8 h: 0.14 ± 0.03 ng/mL
In vivo; po
  half-life: 5.99 ± 3.86 h
In vivo; po, 60 mg/kg
  AUC(0-inf): 2.9 ± 0.6 ng·h/mL
  AUC(0-t): 1.82 ± 0.19 ng·h/mL
  Cmax: 0.29 ± 0.04 ng/mL
  Tmax: 2.6 ± 0.89 h
  half-life: 5.25 ± 2.27 h
In vivo; po, 60 mg·kg^−1
  concentration at 0.25 h: 0.26 ± 0.02 ng/mL
  concentration at 0.5 h: 0.24 ± 0.02 ng/mL
  concentration at 1 h: 0.25 ± 0.02 ng/mL
  concentration at 1.5 h: 0.22 ± 0.02 ng/mL
  concentration at 2 h: 0.21 ± 0.01 ng/mL
  concentration at 3 h: 0.27 ± 0.04 ng/mL
  concentration at 4 h: 0.25 ± 0.05 ng/mL
  concentration at 6 h: 0.24 ± 0.06 ng/mL
  concentration at 8 h: 0.13 ± 0.01 ng/mL
CYP2E1 [2]
  Response (% control) CYP2E1: 97.35 % control

## CC(C)=CCC[C@](C)(O[C@@H]1O[C@H](CO)[C@@H](O)[C@H](O)[C@H]1O)[C@H]1CC[C@]2(C)[C@@H]1[C@H](O)C[C@@H]1[C@@]3(C)CC[C@H](O)C(C)(C)[C@@H]3[C@@H](O[C@@H]3O[C@H](CO)[C@@H](O)[C@H](O)[C@H]3O)C[C@]12C [GRg1, ginsenoside Rg1]
CYP3A4
  IC50: 39.2 ± 4.57 µM
  Response (% control) CYP3A4: 97.76 % control
CYP2B6
  IC50 at 15 min: 11 ± 0.87 µM
  Response (% control) CYP2B6: 98.23 % control
CYP2C9
  IC50 at 15 min: 36.5 ± 1.32 µM
CYP2C9; at the Cmax level in rat plasma, calculated from the dose–response curve
  Response (% control) CYP2C9: 96.27 % control
CYP2D6; 15 min, pH 7.4
  Response (% control) CYP2D6: 99.88 % control
CYP2D6
  IC50 at 15 min: 55.7 ± 6.08 µM
CYP1A2
  IC50: 13.1 ± 8.24 µM
  Response (% control) CYP1A2: 98.46 % control
CYP2E1 [1]
  IC50: 34.1 ± 4.76 µM
CYP2C19
  IC50 at 15 min: 78.1 ± 5.25 µM
  Response (% control) CYP2C19: 99.83 % control
In vivo
  concentration at […]: 0.38 ± 0.15 ng/mL
In vivo; 0.25 h after oral CNP
  concentration at 0.25 h: 0.48 ± 0.07 ng/mL
In vivo; 0.5 h after oral CNP
  concentration at 0.5 h: 0.53 ± 0.37 ng/mL
In vivo; 1 h after oral CNP
  concentration at 1 h: 0.4 ± 0.23 ng/mL
In vivo; 1.5 h after oral CNP
  concentration at 1.5 h: 0.43 ± 0.32 ng/mL
In vivo; 2 h after oral CNP
  concentration at 2 h: 0.4 ± 0.14 ng/mL
In vivo; 3 h after oral CNP
  concentration at 3 h: 0.53 ± 0.4 ng/mL
In vivo; 4 h after oral CNP
  concentration at 4 h: 0.47 ± 0.13 ng/mL
In vivo; 6 h after oral CNP
  concentration at 6 h: 0.37 ± 0.17 ng/mL
In vivo; 8 h after oral CNP
  concentration at 8 h: 0.65 ± 0.2 ng/mL
In vivo; 12 h after oral CNP
  concentration at 12 h: 0.6 ± 0.36 ng/mL
In vivo; 24 h after oral CNP
  concentration at 24 h: 0.34 ± 0.12 ng/mL
In vivo; 48 h after oral CNP
  concentration at 48 h: 0.13 ± 0.04 ng/mL
In vivo; po, 60 mg/kg
  AUC(0-inf): 16.7 ± 3.93 ng·h/mL
  AUC(0-t): 14 ± 5.03 ng·h/mL
  Cmax: 0.78 ± 0.13 ng/mL
  Tmax: 4.71 ± 3.71 h
  half-life: 11.7 ± 2.09 h
In vivo; po, 60 mg·kg^−1
  concentration at 0.25 h: 0.56 ± 0.15 ng/mL
  concentration at 0.5 h: 0.37 ± 0.12 ng/mL
  concentration at 1 h: 0.44 ± 0.19 ng/mL
  concentration at 1.5 h: 0.33 ± 0.21 ng/mL
  concentration at 2 h: 0.21 ± 0.05 ng/mL
  concentration at 3 h: 0.49 ± 0.29 ng/mL
  concentration at 4 h: 0.34 ± 0.32 ng/mL
  concentration at 6 h: 0.37 ± 0.13 ng/mL
  concentration at 8 h: 0.63 ± 0.14 ng/mL
  concentration at 12 h: 0.59 ± 0.27 ng/mL
  concentration at 24 h: 0.22 ± 0.13 ng/mL
  concentration at 48 h: 0.09 ± 0.01 ng/mL
CYP2E1 [2]
  Response (% control) CYP2E1: 99.57 % control

Reference: paper PMC7076352 (Pharmaceutics, 2020)
